Source: PubChem BioAssay (NCI)
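Compound exposure: 48 hours, 5 concentrations, 96-well plates. At the TGI there is no net growth.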

What was measured:
Experiment in all cases: growth of human tumour cells (NCI), 48 h
786-0 renal = tested on: 786-0 renal
OVCAR-8 ovarian = tested on: OVCAR-8 ovarian
IGROV1 ovarian = tested on: IGROV1 ovarian
DU-145 prostate = tested on: DU-145 prostate
NCI/ADR-RES ovarian = tested on: NCI/ADR-RES ovarian
HOP-92 NSCLC = tested on: HOP-92 NSCLC
UACC-62 melanoma = tested on: UACC-62 melanoma
U251 CNS = tested on: U251 CNS
A549 NSCLC = tested on: A549 NSCLC
EKVX NSCLC = tested on: EKVX NSCLC
SW-620 colon = tested on: SW-620 colon
SF-268 CNS = tested on: SF-268 CNS
UO-31 renal = tested on: UO-31 renal
COLO 205 colon = tested on: COLO 205 colon
SF-295 CNS = tested on: SF-295 CNS
SN12C renal = tested on: SN12C renal
HCT-116 colon = tested on: HCT-116 colon
SK-MEL-28 melanoma = tested on: SK-MEL-28 melanoma
HCC-2998 colon = tested on: HCC-2998 colon
K-562 leukemia = tested on: K-562 leukemia

| Compound | TGI (786-0 renal) [µM] | TGI (OVCAR-8 ovarian) [µM] | TGI (IGROV1 ovarian) [µM] | TGI (DU-145 prostate) [µM] | TGI (NCI/ADR-RES ovarian) [µM] | TGI (HOP-92 NSCLC) [µM] | TGI (UACC-62 melanoma) [µM] | TGI (U251 CNS) [µM] | TGI (A549 NSCLC) [µM] | TGI (EKVX NSCLC) [µM] | TGI (SW-620 colon) [µM] | TGI (SF-268 CNS) [µM] | TGI (UO-31 renal) [µM] | TGI (COLO 205 colon) [µM] | TGI (SF-295 CNS) [µM] | TGI (SN12C renal) [µM] | TGI (HCT-116 colon) [µM] | TGI (SK-MEL-28 melanoma) [µM] | TGI (HCC-2998 colon) [µM] | TGI (K-562 leukemia) [µM] |
| --- | --- | --- | --- | --- | --- | --- | --- | --- | --- | --- | --- | --- | --- | --- | --- | --- | --- | --- | --- | --- |
| [N-]=[N+]=NC1C(O)C(CO)OC1n1ccc(=O)[nH]c1=O (stereo not given) | > 875 | > 875 | > 875 | > 875 | > 875 | > 875 | > 875 | > 875 | > 875 | > 875 | > 875 | > 875 | > 875 | > 875 | > 875 | > 875 | > 875 | > 875 | > 875 | > 875 |
| CCN1CCC(O)(/C=C/c2ccc(C)cc2)C(C(=O)/C=C/c2ccc(C)cc2)C1 (stereo not given) | 4.29 | 7.54 | 17.5 | 25.2 | 8.03 | 19.6 | 12.3 | 9.24 | 21.4 | 26.3 | 3.36 | 24.6 | 12.4 | 4.45 | 22.9 | 20.6 | 4.63 | 14.8 | 5.08 | 6.07 |
| O=C(Nc1nncs1)NS(=O)(=O)n1c(=S)sc2ccccc21 | > 100 | > 100 | > 100 | > 100 | > 100 | > 100 | > 100 | > 100 | > 100 | > 100 | > 100 | > 100 | > 100 | > 100 | > 100 | > 100 | > 100 | > 100 | > 100 | > 100 |
| COC(=O)CC1C=CC(C)(OC)OO1 (stereo not given) | > 100 | > 100 | > 100 | > 100 | > 100 | > 100 | > 100 | > 100 | > 100 | > 100 | > 100 | > 100 | > 100 | > 100 | > 100 | > 100 | > 100 | > 100 | > 100 | > 100 |
| CC(C(=O)OCc1ccccc1)(c1ccco1)N1C(=O)OC(c2ccccc2)C1c1ccccc1 (stereo not given) | > 100 | > 100 | > 100 | > 100 | > 100 | > 100 | > 100 | > 100 | > 100 | > 100 | > 100 | > 100 | > 100 | > 100 | > 100 | > 100 | > 100 | > 100 | > 100 | > 100 |
| Cn1c(=O)oc2cc(C(O)CN3CCN(Cc4ccccn4)CC3)c(Cl)cc21 (stereo not given) | > 100 | > 100 | > 100 | > 100 | > 100 | > 100 | > 100 | > 100 | > 100 | > 100 | > 100 | > 100 | > 100 | > 100 | > 100 | > 100 | > 100 | > 100 | > 100 | > 100 |
| CCC(C)C1NC(=O)C(NC(=O)c2c3[nH]c4c(C(=O)NC5C(=O)NC(C(C)CC)C(=O)N6CCCC6C(=O)N(C)CC(=O)N(C)C(C(C)C)C(=O)OC5C)ccc(C)c4oc-3c(C)c(=O)c2=O)C(C)OC(=O)C(C(C)C)N(C)C(=O)CN(C)C(=O)C2CCCN2C1=O (stereo not given) | > 79.9 | 38.3 | > 100 | > 78 | > 100 | > 80.3 | 17.6 | > 100 | > 100 | > 100 | > 93.7 | 97.4 | > 77 | 13.4 | > 93 | > 100 | 40.4 | 76.3 | 27.7 | > 65 |
| Cc1ccc(-c2n[nH]c(=O)n2/N=C\c2ccc([N+](=O)[O-])cc2)cc1 | > 100 | > 100 | > 100 | > 100 | > 100 | > 100 | > 100 | > 100 | > 100 | > 100 | > 100 | > 100 | > 100 | > 100 | > 100 | > 100 | > 100 | > 100 | > 100 | > 94.2 |
| O=C1c2cccc3cccc(c23)C2NCCCN12 (stereo not given) | > 100 | > 100 | > 100 | > 100 | > 100 | > 100 | > 100 | > 100 | > 100 | > 100 | > 100 | > 100 | > 100 | > 100 | > 100 | > 100 | > 100 | > 100 | > 100 | > 100 |
| Cc1cc(C2CC(O)C(CO)O2)c(F)cc1F (stereo not given) | > 100 | > 100 | > 100 | > 100 | > 100 | > 100 | > 100 | > 100 | > 100 | > 100 | > 100 | > 100 | > 100 | > 100 | > 100 | > 100 | > 100 | > 100 | > 100 | > 100 |
| Ic1cccc(/C=C/CN2CCN(CCOC(c3ccccc3)c3ccccc3)CC2)c1 | 33.7 | 30 | 40.9 | 28.3 | 34.7 | 29.4 | 37.4 | 29.7 | 45 | 41.4 | > 100 | > 100 | 29 | 65.1 | 33.1 | 29.6 | 26.8 | 50.1 | 20.4 | 23.9 |
| c1ccc([P+](CC[P+](c2ccccc2)(c2ccccc2)c2ccccc2)(c2ccccc2)c2ccccc2)cc1 | > 100 | > 100 | > 100 | > 100 | > 100 | > 92.3 | > 100 | 21 | > 100 | > 100 | > 100 | > 100 | > 100 | 24.9 | > 100 | > 100 | > 100 | 38.4 | 44.5 | > 100 |
| O=c1oc2ccccc2cc1-c1cn2ccccc2n1 | 13.4 | 10.7 | 26.3 | 21 | 11.9 | > 100 | 15.8 | 5.66 | 21 | 29.3 | 31.6 | 13.2 | 7.02 | > 100 | 13.5 | 17.7 | 30.1 | 17.7 | 39.4 | > 52.6 |
| COc1ccc(OC)c(C(Cc2ccnc3ccccc23)Cc2ccnc3ccccc23)c1 | > 10 | > 10 | > 10 | > 10 | > 10 | > 10 | > 10 | > 10 | > 10 | > 10 | > 10 | > 10 | > 10 | > 10 | > 10 | > 10 | > 10 | > 10 | > 10 | > 10 |
| CCOC(=O)CO/N=C1/C(c2c(O)[nH]c3ccccc23)=Nc2ccccc21 | > 100 | > 100 | 79.2 | > 100 | > 100 | 63.3 | > 100 | 66.1 | > 100 | > 100 | > 100 | > 100 | > 100 | > 100 | > 100 | > 100 | > 100 | > 100 | > 100 | > 100 |
| O=C1C=CC(=O)c2c1ccc1c3ccccc3n(-c3cccc([N+](=O)[O-])c3)c21 | 3.58 | > 8.25 | > 10 | > 10 | > 10 | 4.05 | > 3.16 | > 10 | > 10 | > 9.51 | 2.79 | > 10 | > 10 | 3.21 | > 10 | > 10 | 3.91 | > 6.36 | > 10 | 1.45 |
| Cc1cn(C2CC(O)C(CO[Si](C)(C)C(C)(C)C)OC2OC(C)C)c(=O)[nH]c1=O (stereo not given) | 31.6 | 91.8 | 77 | > 100 | > 100 | 79.4 | > 100 | > 100 | > 100 | > 100 | > 100 | > 100 | > 100 | 48.9 | > 100 | > 100 | 31.3 | > 100 | 62.7 | > 100 |
| O=[N+]([O-])/C(C(Cl)=C(Cl)Cl)=C(/Nc1ccccc1)SCc1ccccc1 | 31.1 | 34.8 | 39.9 | 59.4 | 31.1 | 60.5 | 44.6 | 34.6 | 33.5 | 48.6 | 49 | 43.4 | 39 | 42.4 | 90 | 44.2 | 30.2 | 39.2 | 45 | 49.9 |
| C/C(=N/NC(=S)Nc1ccc(Cl)cc1)c1cccc(/C(C)=N\NC(=S)Nc2ccc(Cl)cc2)n1 | 21 | 8.69 | > 100 | 65.5 | 91.3 | > 100 | 43.1 | 60.3 | 53.2 | > 100 | > 100 | 58.1 | 53.2 | 30.7 | 29.6 | > 100 | 22.4 | 45.6 | > 100 | 45 |
| O=C(/C=C/c1ccc(OCc2cccc(Cl)c2)cc1)NO | 23.9 | 20.3 | 38 | 40.8 | 23.3 | 33.8 | 27.9 | 47.9 | 51.2 | > 100 | > 100 | > 100 | 18.7 | 32 | 50.1 | 49.4 | 25.8 | > 100 | 31 | > 100 |
| Cc1c(O)c(OC2OC(CO)C(O)C(O)C2O)cc2c1CC[C@@H]1C2(C)C(=O)C[C@]2(C)[C@@H]([C@@](C)(O)C(=O)CCC(C)(C)O)[C@H](O)C[C@@]12C (stereo not given in full) | > 100 | > 100 | > 100 | > 100 | > 100 | > 100 | > 100 | > 100 | > 100 | > 100 | > 100 | > 100 | > 100 | > 100 | > 100 | > 100 | > 100 | > 100 | > 100 | > 100 |
| Cc1cc2c(cc1C)C(=O)C1(C2)Cc2c(C)ccc(C)c2C1=O (stereo not given) | > 100 | > 100 | > 100 | > 100 | > 100 | > 100 | > 100 | > 100 | > 100 | > 100 | > 100 | > 100 | > 100 | > 100 | > 100 | > 100 | > 100 | > 100 | > 100 | > 100 |
| O=C(O/C=C\OC1CCCC1(c1ccccc1)c1ccccc1)c1ccccc1 (stereo not given) | 14 | 12.1 | 9.37 | 13.6 | 8.99 | 4.97 | 16.8 | 12.4 | > 68.5 | 34.8 | 11.3 | 14.1 | 3.84 | 31.5 | 34.9 | 13.7 | 6.52 | 18.3 | > 49.4 | > 36 |
